Experimental data taken from patent US20110189174A1, “COMPOSITIONS AND METHODS FOR TREATING, REDUCING, AMELIORATING, ALLEVIATING, OR INHIBITING PROGRESSION OF, PATHOGENIC OCULAR NEOVASCULARIZATION” (priority 2010, published 2011).

Tests used:
[1] = tested on: human retinal endothelial cells (HREC); test: Testing 6: VEGF-induced HREC proliferation (MTS assay), BOL-303055-X and Avastin alone and in combination; type: cell-based; conditions: for Inhibition of VEGF-induced HREC proliferation, agent alone: Avastin 3-300 ng/ml (significant from 30 ng/ml)
Experimental: HREC were first cultured overnight in a 96-well plate coated with fibronectin. The next day, cells were serum-starved for 2 hours. The medium containing different agents as shown in Table 12 was pre-incubated for 1 hour before being added into appropriate wells. The cells were further cultured at 37° C., 5% CO2, and 95% humidity for another 3 days. After that, cell proliferation was estimated by the MTS assay—a cell metabolic activity assay (disclosed hereinabove).
A 96-well plate was coated with human fibronectin (10 μg/ml) for 5 h at 37° C., 5% CO2, and 95% humidity. HREC were collected from flasks by EDTA-trypsin treatment and re-suspended in 10% FBS CS-C medium at 18,000 cells/ml. Cells (200 μl/well) were added to the plate and cultured for overnight at 37° C., 5% CO2, and 95% humidity. Next day, medium was aspirated and serum-free medium was added to wells at 200 μl/well for 2 hours.
Normal IgG was also added in such a way that all groups contained the same amount of IgG protein. All medium solutions were incubated for 1 h at 37° C., 5% CO2, and 95% humidity. After carefully aspirating the medium from cells, 200 μl of the medium containing different agents was added into appropriate wells. The cells were further cultured for 3 days.
At the end of incubation, the medium was carefully aspirated from cells and 120 μl of MTS working solution was added into all wells. The plate was incubated at 37° C., 5% CO2, and 95% humidity for 1 hour and then read by a plate reader at 490 nm wavelength.
Median optical density (OD) was generated from different groups. Data were expressed as mean±SEM of the OD values. Statistical analysis was performed using a three-way ANOVA followed by the contrast procedure on log-transformed data, and P<0.05 was considered statistically significant. […] All the data from the individual wells were fitted to a re-parameterized four-parameter logistic equation to obtain IC50 using similar methodology as that previously described and utilizing the statistical analysis software JMP (SAS Institute, Cary, N.C.).

[2] = tested on: human retinal endothelial cells (HREC); test: Testing 5: VEGF-induced HREC proliferation (MTS assay), echistatin and Avastin alone and in combination; type: cell-based
Experimental: HREC were first cultured overnight in a 96-well plate coated with fibronectin. The next day, cells were serum-starved for 2 h before treatment. Medium containing different agents as shown in table below was pre-incubated for 1 h before being added to cells. The cells were cultured at 37° C., 5% CO2, and 95% humidity for another 3 days. After that, cell proliferation was estimated by the MTS assay. […] Normal human IgG was also added to different groups in such a way that all groups contained the same amounts of IgG protein.
A 96-well plate was coated with human fibronectin (10 μg/mL) for 5 hours. HREC were collected from flasks by EDTA-trypsin treatment and re-suspended in 10% FBS CS-C medium at 15,000 cells/mL. Cells (200 μL) were added to the plate and cultured overnight at 37° C., 5% CO2, and 95% humidity. Next day, the medium was removed and 200 μl/well serum free medium was added.
All medium solutions were incubated for 1 h at 37° C. After carefully aspirating the medium from cells, […], of the medium containing the different agents was added into appropriate wells. The cells were cultured for another 3 days.
At the end of incubation, the medium was carefully aspirated from cells and 120 μl of MTS working solution was added into all wells including blank wells (without cells). The plate was incubated at 37° C., 5% CO2, and 95% humidity for 1 hour and then absorbance was read by a plate reader at 490 nm wavelength.
Median optical density (OD) was generated from different groups. Data were expressed as mean±SEM of the OD values. Statistical analysis was performed using a one or two-way ANOVA using Box-Cox transformed data if needed, and P<0.05 was considered statistically significant. […] All the data from the individual wells were fitted to a re-parameterized four-parameter logistic equation to obtain IC50 using similar methodology as that previously described and utilizing the statistical analysis software JMP (SAS Institute, Cary, N.C.).

[3] = rat, in vivo
Experimental: The anterior segment of the eye was examined using a slit-lamp biomicroscopy for excluding any animals with abnormalities that might interfere with the study. Fundus photography and fluorescein angiography (FA) were performed to document the health of the retina and the ocular circulation using a TRC 50EX fundus camera (Topcon). For FA, 10% sodium fluorescein was injected intravenously (50 mg/kg of body weight) through the tail vein or the vein under the incisor before the procedure.
Immediately after placement of laser photocoagulation, the experimental eyes received an intravitreal injection of either a compound or a vehicle as described in Table 5. Following the disinfection of ocular surface with 5% betadine and 0.9% saline solutions, the injections were performed with aid of a surgical microscope using 0.3 mL syringes with a 31-gauge ½-inch long needle (Ultra-Fine II™ Insulin syringe, BD, Franklin Lakes, N.J.).
Two weeks after photocoagulation, all rats were examined under anesthesia and pupil dilation with slit-lamp biomicroscopy, fundus photography and FA as described in the baseline examination.

[4] = BOL-303055-X 1 nM, VEGF 10 ng/ml

Compound: CCc1nc(NC[C@H](NC(=O)OCc2ccccc2)C(=O)O)c(C)c(N2CCC(c3ccc4c(n3)NCCC4)CC2)n1 [BOL-303055-X]
- HREC proliferation under basal conditions ([1]; 1 nM, no VEGF): significantly inhibited
- Enhancement of Avastin potency ([1]; BOL-303055-X 1 nM): approximately 3.8 fold
- Inhibition of VEGF-induced HREC proliferation, agent alone [1, 4]: reduced VEGF-induced proliferation in a statistically significant manner
- Combination effect with Avastin on VEGF-induced HREC proliferation (synergistic/additive) ([1]; BOL-303055-X 1 nM, Avastin 10 to 100 ng/ml): synergistic effects

Compound: bevacizumab [Avastin, reference compound]
- IC50 ± SE of Avastin alone on inhibiting VEGF-induced proliferation of HREC ([2]; VEGF 10 ng/mL, estimated): 0.021 µg/mL
- Inhibition of VEGF-induced HREC proliferation, agent alone ([2]; echistatin 2 nM, Avastin 0.625-10 ng/ml (significant at 10 ng/ml), VEGF 10 ng/mL): dose-dependent inhibition
- HREC proliferation under basal conditions ([2]; echistatin 2 nM, Avastin 0.625-10 ng/ml, no VEGF): no effect
- Inhibition of VEGF-induced HREC proliferation, agent alone [1, 4]: dose-dependent inhibition
- IC50 ± SE of Avastin plus BOL-303055-X on inhibiting VEGF-induced proliferation of HREC ([1]; VEGF 10 ng/ml, BOL-303055-X 1 nM, estimated): 0.016 µg/mL
- Intraocular inflammation and retinal vascular congestion [3]: no intraocular inflammation and retinal vascular congestion was recorded
